Results taken from patent US4618605A, “Process for the production of β-elemonic acid and pharmaceutical preparations containing said acid” (priority 1983, dated 1986).
Read-outs that look alike come from different tables or passages of the source.

Key:
[1] = tested on: carrageenin paw edema; experiment: carrageenin rat paw edema test of Hillebrecht (antiphlogistic effectiveness); type: in vivo; conditions: for Inhibiting effect (%): rat, after three hours, vs control group
Procedure: 1. The antiphlogistic effectiveness was determined by the rat paw edema test of Hillebrecht (J. Hillebrecht, Arzneim, Forsch. 1954, Vol. 4, p. 607). In this test, rats weighing from 120 g-160 g were given a subplantar dose of carrageenin (0.5% in 0.9% NaCl solution) in an amount of 0.1 ml of solution per paw, using one hind paw of each rat, to produce edema. After administration of the test substance, which as a rule should not exceed a volume of 10 ml/kg body weight, the volume of the paw was determined in an overflow device. After three hours the final value was determined. For each dosage level the experiment was performed with five test and five control animals of one sex and repeated with the same number of animals of the opposite sex. The result is expressed as the percentage inhibition of edema as compared with the control group.

[2] = tested on: young rats; experiment: comparative side-effect investigation with prednisolone on young rats, 8 days; type: in vivo, rat; set-up: key: 0: no effect; (-): weak inhibition; -: definite inhibition; ---: very strong inhibition
Procedure: β-Elemonic acid was compared with prednisolone for determining side-effects. Known antiphlogistic substances can cause undesired side-effects, some of which arise even at therapeutic doses. For this reason a comparative investigation of β-elemonic acid with prednisolone was undertaken (H. J. Lee, M. R. I. Soliman in Science 215 989-991, 1982). Carried out on young rats, the duration of application was 8 days. β-Elemonic acid was administered orally up to a dosage of 316 mg/kg body weight, and prednisolone intramuscularly up to a dosage of 5 mg/kg body weight.

[3] = tested on: adrenal gland; experiment: adrenal gland weights at termination of the adjuvant arthritis (17-day administration); type: in vivo, Wistar rats; conditions: 17-day prophylactic administration
Procedure: (§1) Ten Wistar rats weighing from 120-150 g were used for each dose. The same number of animals served as a control. Arthritis was induced with 0.5 ml Freud's adjuvant, by subplantar injection. The test lasted 17 days. At the beginning of the test the paw volume of the non-injected hind paw was determined and this was used as a starting value. Further volume measurements were carried out on the 14th and 17th days of the test. For the result the difference between the starting and finishing volumes of the paw, both of the test group and of the control group, was obtained and the inhibition expressed as a percentage. With daily administration from the time of induction of arthritis onwards (prophylactic application) the following inhibition values (%) were obtained: […]

[4] = tested on: stomach mucosa; experiment: induction of stomach ulcers (acute stomach mucous tolerability); type: in vivo, Wistar rats; conditions: for Effect (ulcer induction): single administration, after 3.5 hours; for Threshold dose Acute stomach mucous tolerability: p.o.
Text: The most frequent side effect in known anti-rheumatics is poor gastrointestinal tolerance with ulcer induction. For this reason β-elemonic acid was examined for the induction of ulcers. The determination of ulcer formation was made according to W. J. R. Whittle, Brit. J. Pharmacology, 1975, Vol. 55, pp. 242-243; L. Mariani, Europ. J. Toxicol. Eviron., 1975, Vol. 8, pp. 335-39; and R. Menguy and L. Desbaillets, Proc. Soc. Bio., Vol. 125, p. 1108. In the tests, for each dose and control ten male Wistar rats (120-150 g, kept fasting for 16 hours) were used. The provocation of bleeding stomach ulcer took place by oral application of the active ingredient. The animals were sacrificed after 3.5 hours, the stomach removed, opened along the larger curvature and stretched on a foam polystyrene plate. The median ulcer factor of the test group and the control group was determined.

[5] = tested on: adjuvant arthritis; experiment: adjuvant arthritis test of Pearson, prophylactic application; type: in vivo, Wistar rats; conditions: for inhibition values (%): prophylactic; for ED50: Rattus norvegicus, po, 408 h, read-out: ED50 Adjuvant arthritis prophyl.; for antiphlogistic activity (in words): appraisal from ED50 values in the arthritis test
Procedure: 3. The adjuvant arthritis test of C. M. Pearson, Proc. Soc. Exp. Biol. 91, 95-101 (1956) was carried out as a further relevant animal experiment for the examination of anti-rheumatic substances.
as §1

[6] = tested on: rats; experiment: dose-range study on rats, daily application for 14 days; type: in vivo, rat; conditions: daily for 14 days, 681.0 and 1,000.0 mg/kg body weight
[7] = therapeutic range (therapeutic indices); type: in vivo; conditions: for selectivity ratio: in vivo, po
Text: An assessment of the effectiveness of elemonic acid was compared with known substances. A quantitative assessment of β-elemonic acid in comparison with known antiphlogistic substances was made possible by determining the therapeutic ranges, i.e. by the safety with which an active ingredient can be used. […] The therapeutic range is given (1) by the ratio between the LD50 and the ED30 in the CVF paw oedema and (2) by the ratio between the dose threshold value of stomach intolerance and the ED50 in the arthritis model. The ED30 and the ED50 values were determined with the aid of a regression line: […]

[8] = tested on: CVF paw edema; experiment: rat paw edema induced by cobra venom factor (CVF); type: in vivo; conditions: for Inhibition effect (%): rat, after three hours, vs control group; for ED30: Rattus norvegicus, po, 3 h, read-out: ED30 CVF edema
Procedure: 2. As a further experiment for testing the antiphlogistic effectiveness there was used rat paw edema induced by means of cobra venom factor (CVF). Since CVF produces inflammation by way of activation of the complementary system, inhibiting substances could open up a new kind of working principle for application in inflammatory illnesses.
Edema was provoked by subplantar injection of CVF (10 units in 1 ml NaCl solution 0.9%) in an amount of 0.1 ml of solution per paw, into one hind paw of each of a number of rats weighing from 120-160 g. After administration of the test substance in a volume of 10 ml/kg body weight the volume of the paw was determined in an overflow device. After three hours the final value was determined. For each dose the test was carried out with five test and five control animals of one sex, and repeated with the same number of animals of the opposite sex. The result was expressed as percentage inhibition of the edema compared with the control group.

[9] = tested on: adjuvant arthritis; experiment: adjuvant arthritis test, therapeutic application beginning ten days after induction; type: in vivo, Wistar rats; conditions: for inhibition values (%): therapeutic
[10] = acute peroral toxicity in the mouse; conditions: in vivo
Procedure: Determination of toxicity of β-elemonic acid was carried out on the mouse and the rat. Acute peroral toxicity in the mouse: 4.640 mg/kg.

[11] = LD50 / ED30 in the CVF paw oedema, read-out: Therapeutic index 1 (3./1.)
[12] = rat, dose threshold value of stomach intolerance / ED50 in the arthritis model, read-out: Therapeutic index 2 (4./1.)
[13] = po, Table 9, read-out: LD50 Mouse

With `CC(C)=CCC[C@H](C(=O)O)[C@@H]1CC[C@]2(C)C3=C(CC[C@@]12C)[C@@]1(C)CCC(=O)C(C)(C)[C@@H]1CC3` [β-Elemonic acid, 13α, 14β, 17α, 20S,-3-Oxo-lanosta-8,24-dien-21-carboxylic acid] the “Inhibiting effect (%)” value ([1]; 1 mg/kg p.o.) was -7%, the “Inhibiting effect (%)” value ([1]; 10 mg/kg p.o.) was -21% and the “Inhibiting effect (%)” value ([1]; 100 mg/kg p.o.) was -33%. The “Blood picture Leucocytes” value ([2]; 100 mg/kg orally) was 0, the “Blood picture Lymphocytes” value ([2]; 100 mg/kg orally) was 0 and the Body weight development ([2]; 100 mg/kg orally) was “(-)”. For the same compound, the Liver weights ([2]; 100 mg/kg orally) was 0, the Thymus weight ([2]; 100 mg/kg orally) was 0 and the “Blood picture Leucocytes” value ([2]; 316 mg/kg orally) was 0. The “Blood picture Lymphocytes” value ([2]; 316 mg/kg orally) was 0, the Body weight development ([2]; 316 mg/kg orally) was “(-)” and the Liver weights ([2]; 316 mg/kg orally) was 0. For the same compound, the Thymus weight ([2]; 316 mg/kg orally) was “(-)”, the adrenal gland weights [3] was “inside the normal limits” and the “Effect (ulcer induction)” value ([4]; 10 mg/kg p.o.) was 0. For the same compound, the “Effect (ulcer induction)” value ([4]; 100 mg/kg p.o.) was 0, the “Effect (ulcer induction)” value ([4]; 316 mg/kg p.o.) was 0 and the “Threshold dose Acute stomach mucous tolerability” value [4] was 316.00 mg/kg. The “inhibition values (%)” value ([5]; 14th day p.i., 1 mg/kg p.o.) was -55%, the “inhibition values (%)” value ([5]; 14th day p.i., 10 mg/kg p.o.) was -62% and the “inhibition values (%)” value ([5]; 14th day p.i., 100 mg/kg p.o.) was -165%. For the same compound, the “inhibition values (%)” value ([5]; 17th day p.i., 1 mg/kg p.o.) was -38%, the “inhibition values (%)” value ([5]; 17th day p.i., 10 mg/kg p.o.) was -47% and the “inhibition values (%)” value ([5]; 17th day p.i., 100 mg/kg p.o.) was -92%. The ED50 [5] was 4.64 mg/kg, the aggravating side-effects [6] was “no occurrences of aggravating side-effects” and the selectivity ratio [7, 11] was 1160. For the same compound, the selectivity ratio [7, 12] was 68, the “Therapeutic indices 1 and 2 compared with comparison substances (in words)” value ([7]; vs phenylbutazone and indomethacin) was “several times higher” and the “Inhibition effect (%)” value ([8]; 1 mg/kg p.o.) was -24%. For the same compound, the “Inhibition effect (%)” value ([8]; 10 mg/kg p.o.) was -32%, the “Inhibition effect (%)” value ([8]; 100 mg/kg p.o.) was -49% and the ED30 [8] was 3.98 mg/kg. For the same compound, the “inhibition values (%)” value ([9]; 14th day p.i., 1 mg/kg p.o.) was “+36%”, the “inhibition values (%)” value ([9]; 14th day p.i., 10 mg/kg p.o.) was -13% and the “inhibition values (%)” value ([9]; 14th day p.i., 100 mg/kg p.o.) was -38%. The “inhibition values (%)” value ([9]; 17th day p.i., 1 mg/kg p.o.) was -31%, the “inhibition values (%)” value ([9]; 17th day p.i., 10 mg/kg p.o.) was -42% and the “inhibition values (%)” value ([9]; 17th day p.i., 100 mg/kg p.o.) was -81%. The “inhibition values (in words)” value ([9]; therapeutic application beginning ten days after induction) was “pronounced inhibition values”, the LD50 [10, 13] was 4640 mg/kg and the LD50 ([10]; po, peroral, read-out: Acute peroral toxicity) was 4.64 mg/kg.

For `C[C@]12C=CC(=O)C=C1CC[C@@H]1[C@@H]2[C@@H](O)C[C@@]2(C)[C@H]1CC[C@]2(O)C(=O)CO` [Prednisolone, reference compound], the “Blood picture Leucocytes” value ([2]; 5 mg/kg intramuscularly) was “-”, the “Blood picture Lymphocytes” value ([2]; 5 mg/kg intramuscularly) was “-” and the Body weight development ([2]; 5 mg/kg intramuscularly) was “-”. For the same compound, the Liver weights ([2]; 5 mg/kg intramuscularly) was 0, the Thymus weight ([2]; 5 mg/kg intramuscularly) was “---” and the “Blood picture Leucocytes” value ([2]; 2,5 mg/kg intramuscularly) was 0. The “Blood picture Lymphocytes” value ([2]; 2,5 mg/kg intramuscularly) was “(-)”, the Body weight development ([2]; 2,5 mg/kg intramuscularly) was “-” and the Liver weights ([2]; 2,5 mg/kg intramuscularly) was 0. The Thymus weight ([2]; 2,5 mg/kg intramuscularly) was “---”.

With `CCCCC1C(=O)N(c2ccccc2)N(c2ccccc2)C1=O` [Phenylbutazone] the “Inhibiting effect (%)” value ([1]; 100 mg/kg p.o.) was -41%, the “reduction of edema (in words)” value ([1]; carrageenin paw edema test in rats) was “a reduction of edema only at a fairly high dosage level” and the “inhibition values (%)” value ([5]; 14th day p.i., 10 mg/kg p.o.) was -42%. The “inhibition values (%)” value ([5]; 14th day p.i., 31,6 mg/kg p.o.) was -57%, the “inhibition values (%)” value ([5]; 14th day p.i., 82,5 mg/kg p.o.) was -58% and the “inhibition values (%)” value ([5]; 17th day p.i., 10 mg/kg p.o.) was -31%. The “inhibition values (%)” value ([5]; 17th day p.i., 31,6 mg/kg p.o.) was -51%, the “inhibition values (%)” value ([5]; 17th day p.i., 82,5 mg/kg p.o.) was -43% and the ED50 ([5]; p.o., regression line) was 47.5 mg/kg. The “antiphlogistic activity (in words)” value [5] was “weakly active”, the “Inhibition effect (%)” value ([8]; 1 mg/kg p.o.) was “+10%” and the “Inhibition effect (%)” value ([8]; 10 mg/kg p.o.) was -28%. For the same compound, the “Inhibition effect (%)” value ([8]; 100 mg/kg p.o.) was -34%, the ED30 [8] was 37.7 mg/kg and the “inhibition of CVF edema (in words)” value ([8]; compared with β-elemonic acid) was “weaker inhibition values”. For the same compound, the LD50 ([10]; oral, comparison, read-out: LD50) was 465 mg/kg.

For `COc1ccc2c(c1)c(CC(=O)O)c(C)n2C(=O)c1ccc(Cl)cc1` [Indomethacin, reference compound], the “Threshold dose Acute stomach mucous tolerability” value [4] was 5.62 mg/kg, the ED50 [5] was 0.26 mg/kg and the “antiphlogistic activity (in words)” value [5] was “strongly active”. For the same compound, the selectivity ratio [7, 11] was 8.73, the selectivity ratio [7, 12] was 21.6 and the ED30 [8] was 4.58 mg/kg. For the same compound, the LD50 [10, 13] was 40 mg/kg.
